Data taken from EP1285919A1, “C10 Carbonate substituted taxanes as antitumor agents” (Florida State University Research Foundation, Inc., priority 2001, dated 2003).
Like-named read-outs stand apart in the source and are kept apart here.

How the values were obtained:
[1] = tested on: DU 145 Human Prostrate Carcinoma Xenografts; test: In vivo evaluation against DU145 prostate carcinoma xenografts
Protocol: In Vivo Evaluation of Antitumor Compounds Against DU 145 Human Prostrate Carcinoma Xenografts
Antitumor compounds were prepared in a vehicle of 5% ethanol, 5% Cremophor and 90% isotonic saline in the manner as described for Solution 1 of Example 10. Taxol (paclitaxel; Bristol Meyers Squibb) was obtained as the marketed pharmaceutical drug. The dosing volume was 0.3 ml per 20 g mouse.
Male NCr-nude mice were implanted subcutaneously with 1 mm^3 DU145 prostate carcinoma fragments in the flank and sorted into treatment groups of five mice each. […] Dosing was initiated on Day 1. The antitumor compounds were given i.v. at an estimated maximum tolerated dose (MTD) appropriate for each agent on a qd x 1 schedule (single administration of compound). The i.v. Taxol was given on the qd x 1 schedule as two split doses (one hour between) of 12 mg/kg per split dose (total dose = 24 mg/kg). Taxol was also administered intraperitoneally (i.p.) on a qd x 5 schedule at a daily dose of 18 mg/kg. The vehicle was administered i.v. to control mice in Group 1 on the qd x 1 schedule. The study was terminated on Day 91. Treatment groups are detailed in Table 3.
The mean days of survival is the number of days after which a neoplasm reached a size of 1.5 g and the animal was euthanized. A complete response is obtained […]. […]

HCT116 = test: In vitro cytotoxicity, cell colony formation assay; format: cell-based; details: read-out: IN VITRO ID 50
Protocol: In Vitro cytotoxicity measured by the cell colony formation assay
Four hundred cells (HCT116) were plated in 60 mm Petri dishes containing 2.7 mL of medium (modified McCoy's 5a medium containing 10% fetal bovine serum and 100 units/mL penicillin and […] streptomycin). The cells were incubated in a CO2 incubator at 37 °C for 5 h for attachment to the bottom of Petri dishes. The compounds identified in Example 2 were made up fresh in medium at ten times the final concentration, and then 0.3 mL of this stock solution was added to the 2.7 mL of medium in the dish. The cells were then incubated with drugs for 72 h at 37 ° C. At the end of incubation the drug-containing media were decanted, the dishes were rinsed with 4 mL of Hank's Balance Salt Solution (HBSS), 5 mL of fresh medium was added, and the dishes were returned to the incubator for colony formation. The cell colonies were counted using a colony counter after incubation for 7 days.

[2] = tested on: A2780 Human Ovarian Carcinoma Xenografts; test: In vivo evaluation against A2780 ovarian carcinoma xenografts; set-up: species or system NCr-nude mice; Mean Score: scale not given here; details: for MDS (n): 2.0 g endpoint
Protocol: In Vivo Evaluation of Antitumor Compounds Against A2780 Human Ovarian Carcinoma Xenografts
The A2780 group mean size range was 237-243 mg. Dosing was initiated on Day 1. […] Treatment groups are detailed in Table 5.

[3] = tested on: VM46 Human Colon Carcinoma; test: In vivo evaluation against VM46 colon carcinoma xenografts; set-up: species or system NCr-nude mice; Mean Score: scale not given here
Protocol: In Vivo Evaluation of Antitumor Compounds Against VM46 Human Colon Carcinoma
The VM46 tumor group mean size range was 181-188 mg. Dosing was initiated on Day 1. […] Taxotere was given i.v. at a dose of 70 mg/kg on a qd x 1 schedule. […] The study was terminated on Day 64. Treatment groups are detailed in Table 11.

[4] = Group 2: 24 mg/kg i.v. qd x 1 (two split doses of 12 mg/kg), 5 mice, study to Day 91
[5] = Group 3: 18 mg/kg i.p. qd x 5, 5 mice, study to Day 91
[6] = Group 2: 24 mg/kg i.v. qd x 1 (two split doses of 12 mg/kg), 5 mice, study to Day 60
[7] = Group 3: 15 mg/kg i.p. qd x 5, 5 mice, study to Day 60
[8] = Group 2: 24 mg/kg i.v. qd x 1 (two split doses of 12 mg/kg), 6 mice, study to Day 64
[9] = Group 3: 15 mg/kg i.p. qd x 5, 6 mice, study to Day 64
[10] = Group 4: i.v. qd x 1 at estimated MTD, 5 mice, study to Day 91
[11] = 1781 i.v. qd x 1 at estimated MTD
[12] = Group 4: 60.6 mg/kg i.v. qd x 1, 5 mice, study to Day 60
[13] = Group 4: 60 mg/kg i.v. qd x 1, 6 mice, study to Day 64

SMILES: CC(=O)O[C@H]1C(=O)[C@@]2(C)[C@H]([C@H](OC(=O)c3ccccc3)[C@]3(O)C[C@H](OC(=O)[C@H](O)[C@@H](NC(=O)c4ccccc4)c4ccccc4)C(C)=C1C3(C)C)[C@]1(OC(C)=O)CO[C@@H]1C[C@@H]2O [Taxol]
- MDS (n) ([1]; Group 2: 24 mg/kg i.v. qd x 1 (two split doses of 12 mg/kg), 5 mice, n=3, 1.5 g endpoint, study to Day 91): 37.4 ± 8.9 (3) days
- Complete Response [1, 4]: 0
- Mean Score [1, 4]: 2 ± 1
- Partial Response [1, 4]: 0
- Stable Disease [1, 4]: 1
- Survivors [1, 4]: 1
- Toxic Deaths [1, 4]: 1
- Complete Response [1, 5]: 0
- Mean Score [1, 5]: 0 ± 0
- Partial Response [1, 5]: 0
- Stable Disease [1, 5]: 0
- Survivors [1, 5]: 0
- Toxic Deaths [1, 5]: 5
- weight loss ([1]; Taxol 18 mg/kg i.p. qd x 5): more than 20%
- mice died of drug-related side effects ([1]; Taxol 18 mg/kg i.p. qd x 5, five mice): five
- increase in survival compared to Group 1 controls ([1]; Taxol 24 mg/kg i.v. qd x 1): 9%
- MDS ([1]; Taxol 24 mg/kg i.v. qd x 1, 1.5 g endpoint, three of five animals): 37.4 days
- IC50 (HCT116; Homo sapiens, HCT-116): 2.1 nM
- MDS (n) ([2]; Group 2: 24 mg/kg i.v. qd x 1 (two split doses of 12 mg/kg), 5 mice, n=5, study to Day 60): 21.9 ± 5.5 (5) days
- Complete Response [2, 6]: 0
- Mean Score [2, 6]: 1.8 ± 0.4
- Partial Response [2, 6]: 0
- Stable Disease [2, 6]: 0
- Survivors [2, 6]: 1
- Toxic Deaths [2, 6]: 0
- Complete Response [2, 7]: 0
- Mean Score [2, 7]: 0.6 ± 0.6
- Partial Response [2, 7]: 0
- Stable Disease [2, 7]: 0
- Survivors [2, 7]: 0
- Toxic Deaths [2, 7]: 4
- mice succumbed to drug-related side effects ([2]; Taxol 15 mg/kg i.p. qd x 5, five mice): four
- increase in survival / survival extension compared to Group 1 controls ([2]; i.v. qd x 1, Taxol 24 mg/kg, Taxotere 70 mg/kg): 87%
- MDS ([2]; i.v. qd x 1, Taxol 24 mg/kg, Taxotere 70 mg/kg, 2.0 g cut-off): 21.9 days
- Stable Disease ([2]; number of animals, Taxol 24 mg/kg i.v. qd x 1, Day 61): One
- MDS (n) ([3]; Group 2: 24 mg/kg i.v. qd x 1 (two split doses of 12 mg/kg), 6 mice, n=4, 1.5 g endpoint, study to Day 64): 43.3 ± 3.7 (4) days
- Complete Response [3, 8]: 0
- Mean Score [3, 8]: 3.8 ± 1.4
- Partial Response [3, 8]: 1
- Stable Disease [3, 8]: 1
- Toxic Deaths [3, 8]: 0
- MDS (n) ([3]; Group 3: 15 mg/kg i.p. qd x 5, 6 mice, n=2, 1.5 g endpoint, study to Day 64): 36.1 ± 12.2(2) days
- Complete Response [3, 9]: 0
- Mean Score [3, 9]: 1.8 ± 1.3
- Partial Response [3, 9]: 1
- Stable Disease [3, 9]: 0
- Toxic Deaths [3, 9]: 3
- mortalities ([3]; Taxol 15 mg/kg i.p. qd x 5, six treated animals): three
- MDS ([3]; i.v. qd x 1, Taxol 24 mg/kg (four mice), Taxotere 70 mg/kg, 1.5 g endpoint): 43.3 days
- Stable Disease ([3]; number of cases, Taxol 24 mg/kg i.v. qd x 1, six mice): one
- Partial Response ([3]; number of mice, Taxol 24 mg/kg i.v. qd x 1, six mice): one

SMILES: CCOC(=O)O[C@H]1C(=O)[C@@]2(C)[C@H]([C@H](OC(=O)c3ccccc3)[C@]3(O)C[C@H](OC(=O)[C@H](O)[C@H](C=C(C)C)NC(=O)OC(C)(C)C)C(C)=C1C3(C)C)[C@]1(OC(C)=O)CO[C@@H]1C[C@@H]2O [Compound 1781]
- weight loss ([1]; 1781 72.6 mg/kg i.v. qd x 1, in a number of treated mice prior to death): over 20%
- Complete Response [1, 10]: 0
- Mean Score [1, 10]: 0 ± 0
- Partial Response [1, 10]: 0
- Stable Disease [1, 10]: 0
- Survivors [1, 10]: 0
- Toxic Deaths [1, 10]: 5
- IC50 (HCT116; HCT116, 72 h with drug, colonies counted after 7 days, concentration producing 50% inhibition of colony formation): < 1 nM
- total response rate [2, 11]: at least 20%
- partial responses ([2]; 1781 i.v. qd x 1 at estimated MTD, five mice treated): 2
- MDS (n) ([2]; Group 4: 60.6 mg/kg i.v. qd x 1, 5 mice, n=2, study to Day 60): 38.5 ± 8.3 (2) days
- Complete Response [2, 12]: 0
- Mean Score [2, 12]: 6 ± 1.3
- Partial Response [2, 12]: 2
- Stable Disease [2, 12]: 1
- Survivors [2, 12]: 3
- Toxic Deaths [2, 12]: 0
- Toxic Deaths ([3]; 1781 i.v. qd x 1, six mice): no toxic deaths
- response rate [3, 11]: 16.7%
- MDS (n) ([3]; Group 4: 60 mg/kg i.v. qd x 1, 6 mice, n=5, 1.5 g endpoint, study to Day 64): 42.2 ± 7.1(5) days
- Complete Response [3, 13]: 0
- Mean Score [3, 13]: 3 ± 1.2
- Partial Response [3, 13]: 1
- Stable Disease [3, 13]: 0
- Toxic Deaths [3, 13]: 0
- tolerability ([3]; mouse, in vivo, iv): well-tolerated
